Data reported in US8518978B2, “Pharmaceutical composition for prevention and treatment of restenosis comprising isoxazole derivatives” (SK Biopharmaceuticals Co., Ltd., priority 2007, dated 2013).

Key:
[1] = tested on: HUVEC (human umbrical vein endothelial cell); experiment: Test of endothelial cell proliferation (cell count); type: cell-based; settings: for endothelial cell proliferation: drug alone, increasing concentration, two days, cell count (FIGS. 5, 8 to 10)
Description: An HUVEC (human umbrical vein endothelial cell, Cambrex, US) cell line at 3-10 passages was incubated in an EGM2 (endothelial growth medium, Cambrex, US) culture medium under a standard culture condition (O2 95%, 5% CO2, 37° C., 100% RH). 1×10^4 Cells was divided into a 24-well plate, and cultured for a day so that the cells can be fixed into the 24-well plate. In order to allow the cells to enter interphase, the cells were washed three times with PBS, and the EGM2 culture medium was replaced by EBM2 (endothelial basal medium, Cambrex) including 1% fetal bovine serum and 1% antibiotic-antimycotic (Gibco, US), and the cells were incubated for a day. After the used medium was removed, an EBM2 including 1% fetal bovine serum and 1% antibiotic-antimycotic (Gibco) solution supplemented with a drug was added to the cells, and the cell solution was then cultured for two days. After the cell culture, morphology of the cells was observed under a microscope. Then, the cells were detached from the plate using trypsin, and counted using a hemacytometer. 0.1% DMSO dissolved in saline was used as the vehicle control.

pig coronary stent model [2] = experiment: Re-endothelization in pig coronary stent model (vWF staining); type: in vivo
Description: All pigs receiving a surgical operation were treated with an antithrombotic agent ‘clopidogrel’ (35 mg/day) and aspirin (100 mg/day) before one week of the surgical operation. Pigs weighed 30 to 40 kg were anesthetized with ketamine (20 mg/kg IM) and xylazine (2 mg/kg IM), and their aesthesia was maintained by connecting an infusion set to their ear veins and allowing a ketamine/xylazine solution (ketamin 50 g+xylazine 10 g/500 ml saline) to flow in the ear veins according to the aesthesia state. Pig surgery regions were shaved, sterilized with betadine. Skin on the neck was cut by approximately 5 cm, and a pig carotid artery was found using a mosquito, and 1 ml of heparin (5,000 IU) was administered to pigs. Angiocardiography was performed using a SIREMOBIL 245B angiocardiographer (commercially available from Siemens). A stent (diameter: 3.0 mm; length: 15 mm) was used for surgical operation on LAD, RAD and RCX by expanding the stent at a ratio 1.3:1 of stent:vein diameter, and a position of stent transplantation was previously determined using the imaging system. […]
In order to observe a re-endothelization level by a drug, a tissue section slide of pig blood vessel was reacted at 4° C. with vWF (von willebrand factor, DakoCytomation, US) Ab that stains endothelial cells of mice. […] The tissue section slide was observed and photographed under a fluorescence microscope.

pig coronary stent model [3] = experiment: Restenosis inhibition in pig coronary stent model; type: in vivo
Description: All pigs receiving a surgical operation were treated with an antithrombotic agent ‘clopidogrel’ (35 mg/day) and aspirin (100 mg/day) before one week of the surgical operation. Pigs weighed 30 to 40 kg were anesthetized with ketamine (20 mg/kg IM) and xylazine (2 mg/kg IM), and their aesthesia was maintained by connecting an infusion set to their ear veins and allowing a ketamine/xylazine solution (ketamin 50 g+xylazine 10 g/500 ml saline) to flow in the ear veins according to the aesthesia state. Pig surgery regions were shaved, sterilized with betadine. Skin on the neck was cut by approximately 5 cm, and a pig carotid artery was found using a mosquito, and 1 ml of heparin (5,000 IU) was administered to pigs. Angiocardiography was performed using a SIREMOBIL 245B angiocardiographer (commercially available from Siemens). A stent (diameter: 3.0 mm; length: 15 mm) was used for surgical operation on LAD, RAD and RCX by expanding the stent at a ratio 1.3:1 of stent:vein diameter, and a position of stent transplantation was previously determined using the imaging system.
After 28 days, pigs were intravenously injected with KCl (40 meq/l) under a conventional aesthesia condition to induce pig cardioplegia, and hearts were extracted pigs. […]

[4] = tested on: rat carotid artery injury model; experiment: Re-endothelization in rat carotid artery injury model (vWF staining); type: in vivo
From the text: (§1) White rats weighed 350 to 400 g were anesthetized with ketamine and xylene, and their surgery regions were shaved and sterilized with betadine. Skin on the neck region was cut by about 2 cm, and a rat carotid artery was found using a mosquito. A blood flow was prevented by hanging a thread on the carotid artery and an internal carotid artery, followed by tying an external carotid artery with a thread. A 2F forgarty catheter (Baxter, US) was inserted into a blood vessel between the external carotid artery and the carotid artery to wound a carotid artery region three times. Then, the wounded carotid artery region was tied with a thread to allow a blood flow through the carotid artery and the internal carotid artery and prevent hemorrhage between the carotid artery and the external carotid artery, and the surgery region was closed with stitches. Each of rear neck skins were cut by approximately 1 cm, and an osmotic pump containing a drug is inserted into the blood vessel and closed with stitches. After 1 week to observe the endothelial cells and 2 weeks to observe the restenosis, all blood was extracted from each subject rat using a perfusion, carotid arteries were taken from the rats and their tissue slides were made to observe their section of blood vessel. […]

[5] = tested on: rat carotid artery injury model; experiment: Restenosis inhibition in rat carotid artery injury model; type: in vivo
From the text: as §1

[6] = tested on: SMC (rat aortic smooth muscle cell); experiment: Test of vascular smooth muscle cell proliferation (cell count); type: cell-based
Description: An SMC (rat aortic smooth muscle cell) cell line at 3-10 passages was incubated in a culture medium of SmGM (Smooth muscle cell growth medium, Cambrex) including 5% fetal bovine serum and 1% antibiotic antimycotic reagent (Gibco, US) under a standard culture condition ([…], 5% CO2, 37° C., 100% RH). 2×10^4 Cells were divided into a 24-well plate, and cultured for a day so that the cells can be fixed into the 24-well plate. The cells were washed three times with PBS, put into a solution of SmGM including 5% fetal bovine serum and 1% antibiotic-antimycotic (Gibco), and then incubated for a day. After the used medium was removed, an SmGM including 5% fetal bovine serum solution supplemented with a corresponding drug was added to the cells, and the cell solution was then cultured for two days. After the cell culture, morphology of the cells was observed under a microscope. Then, the cells were detached from the plate using trypsin, and counted using a hemacytometer. 0.1% DMSO dissolved in saline was used as the vehicle control.

[7] = isoxazole derivative together with rapamycin, versus rapamycin alone (FIG. 6)

| Structure (SMILES) | endothelial cell proliferation [1] | further results |
| --- | --- | --- |
| Cn1cnnc1S(=O)(=O)CCNC(=O)c1cc(-c2ccco2)on1 [Derivative 70, 5-furan-2-yl-isoxazole-3-carboxylic acid [2-(4-methyl-4H-[1,2,4]triazol-3-yl-sulfonyl)-ethyl]-amide] | inhibit or maintain the proliferation of the endothelial cells |  |
| O=C(NCCCn1cncn1)c1cc(-c2ccc(F)cc2)on1 [Derivative 31, 5-(4-fluoro-phenyl)-isoxazole-3-carboxylic acid (3-[1,2,4]triazol-1-yl-propyl)-amide] | inhibit or maintain the proliferation of the endothelial cells |  |
| O=C(NCCCSc1nnc[nH]1)c1cc(-c2cccs2)on1 [Derivative 69, 5-thiophen-2-yl-isoxazole-3-carboxylic acid [3-(4H-[1,2,4]triazol-3-yl-sulfanyl)-propyl]-amide] | inhibit or maintain the proliferation of the endothelial cells |  |
| O=C(NCCCn1cncn1)c1cc(-c2ccsc2)on1 [Derivative 62, 5-thiophen-3-yl-isoxazole-3-carboxylic acid (3-[1,2,4]-triazol-1-yl-propyl)-amide] | inhibit or maintain the proliferation of the endothelial cells |  |
| O=C(NCCn1cncn1)c1cc(-c2ccc(F)cc2)on1 [Derivative 35, 5-(4-fluoro-phenyl)-isoxazole-3-carboxylic acid (2-[1,2,4]triazol-1-yl-ethyl)-amide] | inhibit or maintain the proliferation of the endothelial cells |  |
| O=C(NCCCn1cncn1)c1cc(-c2ccco2)on1 [Derivative 19, 5-furan-2-yl-isoxazole-3-carboxylic acid (3-[1,2,4]triazol-1-yl-propyl)-amide] | inhibit or maintain the proliferation of the endothelial cells |  |
| CC(=O)O[C@H]1C(=O)[C@@]2(C)[C@H]([C@H](OC(=O)c3ccccc3)[C@]3(O)C[C@H](OC(=O)[C@H](O)[C@@H](NC(=O)c4ccccc4)c4ccccc4)C(C)=C1C3(C)C)[C@]1(OC(C)=O)CO[C@@H]1C[C@@H]2O [paclitaxel, reference compound] | inhibit the proliferation of HUVEC |  |
| CO[C@H]1C[C@@H]2CC[C@@H](C)[C@@](O)(O2)C(=O)C(=O)N2CCCC[C@H]2C(=O)O[C@H]([C@H](C)C[C@@H]2CC[C@@H](O)[C@H](OC)C2)CC(=O)[C@H](C)/C=C(\C)[C@@H](O)[C@@H](OC)C(=O)[C@H](C)C[C@H](C)/C=C/C=C/C=C/1C [rapamycin, reference compound] |  | re-endothelization rate (healing %) (pig coronary stent model [2]; drug-containing PLGA stent, polymer-coated stent 80.2% (FIG. 15)): 67.9%; restenotic areas of blood vessels (pig coronary stent model [3]; stent with PLGA polymer and drug, after 28 days, negative control 2.74 mm^2 (FIG. 14)): 1.80 mm^2 |
| Cn1nnnc1SCCNC(=O)c1cc(-c2cccs2)on1 [Derivative 68, 5-thiophen-2-yl-isoxazole-3-carboxylic acid [2-(1-methyl-1H-tetrazol-5-yl-sulfanyl)-ethyl]-amide] | inhibit or maintain the proliferation of the endothelial cells |  |
| O=C(NCCCn1ccnc1)c1cc(-c2ccccc2)on1 [Derivative 23, 5-phenyl-isoxazole-3-carboxylic acid (3-imidazol-1-yl-propyl)-amide] | inhibit or maintain the proliferation of the endothelial cells |  |
| O=C(NCCc1ccncc1)c1cc(-c2ccco2)on1 [Derivative 5, 5-furan-2-yl-isoxazole-3-carboxylic acid (2-pyridin-4-yl-ethyl)-amide] | increases or maintains the proliferation of HUVEC | re-endothelization on the damaged artery surface (pig coronary stent model [2]; 4 weeks, stent with rapamycin plus derivative 5 (FIG. 15)): significantly recovered; re-endothelization on damaged carotid artery surface ([4]; 200 μg/kg/day for two weeks, versus not administered (FIG. 12)): occurs more significantly; re-endothelization, together with rapamycin ([4]; compound together with rapamycin versus compound only (FIG. 13)): more significantly increased; endothelial cell proliferation, used together with paclitaxel ([1]; isoxazole derivative together with paclitaxel, versus paclitaxel alone (FIG. 7)): recovered; endothelial cell proliferation, used together with rapamycin [1, 7]: recovered; restenotic area of the blood vessel ([5]; 200 μg/kg/day for two weeks by osmotic pump, versus not administered (FIG. 11)): more significantly reduced in size; restenosis inhibition effect, together with rapamycin ([5]; compound together with rapamycin versus compound only (FIG. 11, FIG. 13)): more significant restenosis inhibition effect; cell number of vascular smooth muscle cells (VSMC) ([6]; drug alone, increasing concentration, two days (FIG. 5)): reduced; vascular smooth muscle cell proliferation, used together with rapamycin [6, 7]: inhibited more significantly; lumen losses of blood vessel (pig coronary stent model [3]; stent with 180 μg rapamycin plus 45, 90 or 180 μg derivative 5, 28 days, versus rapamycin-treated group (FIG. 14)): further reduced |
| O=C(NCCn1ccnc1)c1cc(-c2ccco2)on1 [Derivative 4, 5-furan-2-yl-isoxazole-3-carboxylic acid (2-imidazol-1-yl-ethyl)-amide] | inhibit or maintain the proliferation of the endothelial cells |  |
| O=C(NCCCn1cncn1)c1cc(-c2cccs2)on1 [Derivative 50, 5-thiophen-2-yl-isoxazole-3-carboxylic acid (3-[1,2,4]-triazol-1-yl-propyl)-amide] | inhibit or maintain the proliferation of the endothelial cells |  |
| O=C(NCCCn1ccnc1)c1cc(-c2ccsc2)on1 [Derivative 63, 5-thiophen-3-yl-isoxazole-3-carboxylic acid (3-imidazol-1-yl-propyl)-amide] | inhibit or maintain the proliferation of the endothelial cells |  |
